Reference: patent US20230149418A1, “METHODS AND SYNERGIC COMPOSITIONS FOR TREATING VIRAL INFECTIONS” (HADASIT MEDICAL RESEARCH SERVICES AND DEVELOPMENT LTD., priority 2018, published 2023)
Like-named read-outs stand apart in the source and are kept apart here.

What was measured:
HCMV TB40/E strain = experiment: Plaque reduction assay, HCMV TB40/E strain in human foreskin fibroblasts, single drugs and 2-drug combinations (Chou-Talalay); format: cell-based, human cytomegalovirus; settings: for EC50: Human betaherpesvirus 5, Fibroblast; for DRI (dose reduction index): combination artemisone + maribavir
Protocol: The CMV strain used was TB40/E. The CMV strain was propagated and tittered in human foreskin fibroblasts (HFF) cells. Cell-free virus stocks and cell-associated clinical isolates were maintained at -70° C. Viral stocks were tittered by serial 10-fold dilution in 24-well tissue culture plates containing HFF monolayers overlaid with agarose-medium. After incubation for 7 to 14 days, plaques were enumerated, and virus titer was determined as plaque forming units (PFU) per milliliter (ml). Stocks of artemisone (10 mM), ganciclovir (10 mM), BDCRB (120 mM), brincidofovir (1 mM), maribavir (10 mM) and letermovir (10 mM) were prepared in DMSO or H2O.
Cell monolayers were inoculated in 24-well culture plates with 0.2 ml of virus suspension containing 60 to 100 PFU per well. After adsorption for 60 -120 min at 37° C., the inoculum was removed, and culture medium was replaced with agarose-medium overlay containing serial concentrations of the tested drug(s). Plates were incubated for 7-14 days at 37° C. in a 5% CO2 incubator. Plaques were then counted microscopically.
The effect of a combination of artemisone with each one of ganciclovir (HCMV DNA polymerase), BDCRB (HCMV terminase inhibitor), brincidofovir (HCMV DNA polymerase inhibitor), maribavir (HCMV UL97 kinase inhibitor) and letermovir (HCMV terminase inhibitor) was evaluated by the classical plaque reduction assay. The in vitro activity of each of the above mentioned antiviral compounds alone or in combination with artemisone was evaluated by the classical plaque reduction assay, using HCMV TB40/E strain in human foreskin fibroblasts cells. The concentration of each antiviral compound that reduced the plaque formation by 50% (EC50) was determined as previously described in Wolf DG et al., J Clin Invest. 1995;95:257-63. The individual EC50 values in human foreskin fibroblasts were as follows: artemisone EC50 - 1 µM; ganciclovir EC50 - 1 µM; maribavir EC50 - 1 µM; BDCRB EC50 - 0.5 µM; letermovir EC50 - 5 nM; brincidofovir EC50 -1 nM.
For the 2-drug combination studies, the EC50 value of each drug was used to determine an equipotent ratio between the two compounds (EC50 of drug 1 / EC50 of drug 2). Serial 2-fold dilutions of a mixture comprising artemisone and another antiviral compound at initial concentrations equivalent to 4-fold the equipotent ratio were added to duplicate wells of cells infected with HCMV. Overall, 5 different concentrations of the drug combinations were used: 4xEC50, 2xEC50, 1xEC50,0.5xEC50,0.25xEC50. The cell monolayers were inoculated in 24-well culture plates with 0.2 ml of virus suspension containing 60 to 100 plaque-forming unit (PFU) per well; the Multiplicity of infection (MOI) was 0.001-0.002 PFU/cell).
D1 and D2 are the doses of the two drugs, and Dx is a dose causing to x% effect (LD0.5 is EC50). Briefly, the software extrapolated a combination index (CI) representing the interaction between the two drugs at specified levels of virus inhibition (that is 50%, 75%, 90%, 95%) versus the percentages of the inhibition induced by each drug alone and in combination (equation 16 in Chou).
A weighted average CI (CIwt) was then calculated for each combination as (CI50+ 2×CI75+3×CI90+4×CI95)/10, to access the drug combinatory effects.
The dose reduction index (DRI) was then calculated as described in Chou. In general, the DRI measures the fold of dose reduction of each drug in the combination at a given effect level compared with the doses of each drug alone. For each one of the below tables: Fa - fraction of virus affected; doses are provided in µm.

HCMV = experiment: Ex vivo HCMV infection of human decidual (placental) tissue organ cultures, viral mRNA copy number; format: cell-based, human cytomegalovirus; settings: for EC50: Human betaherpesvirus 5; for Dose of drug alone at Fa 0.9: Fa 0.9, drug alone; for DRI (dose reduction index): combination artemisone + maribavir
Protocol: Organ cultures were washed and stored at -80° C. until assayed. RNA was extracted, and the purified RNA samples were subjected to reverse transcription (RT), followed by quantitative real-time PCR. The viral mRNA copy number was normalized by the cellular housekeeping gene β-actin.
We employed our model of HCMV infection in human decidual tissues (representing the maternal aspect of the chimeric human placenta), maintained as multi-cell-type 3D organ cultures as described in Weisblum Y. et al. J Virol 2011 85(24): 13204-13. doi: 10.1128/JVI.05749-11. For infection of the organ cultures, decidual tissues were placed in 48-well plates and inoculated with the virus (5x10^4 plaque forming units (PFU)/well) for 12 h to allow effective viral adsorption. The tissues were further monitored for viral infection and spread for 7 days. For determination of the drug EC50 values of in the tissues, serial drug concentrations: each drug separately or combination of the drugs were added to the infected decidual tissues during viral adsorption at any further medium replacement to keep the drug concentration constant. The results were compared to samples to which the drug was not added. The EC50 was defined as the drug concentration required to reduce the viral mRNA copy number by 50%. The effect of drug combinations was tested in accordance with the Chou-Talalay method. All comparative experiments were performed in parallel on tissues from the same donor.
The dose reduction index (DRI) was then calculated as described in Chou. As described earlier, the DRI is a measure of how many folds the dose of each drug in a synergistic combination may be reduced at a given effect level compared with the doses of each drug alone. For each one of the below tables: Fa - fraction of virus affected; doses are provided in µm.

CC(C)Nc1nc2cc(Cl)c(Cl)cc2n1[C@H]1O[C@@H](CO)[C@H](O)[C@@H]1O [maribavir]
Dose of drug alone at Fa 0.75 (HCMV TB40/E strain; Fa 0.75, drug alone): 0.8994 µm
Dose of drug alone at Fa 0.9 (HCMV TB40/E strain; Fa 0.9, drug alone): 3.458 µm
Dose of drug alone at Fa 0.95 (HCMV TB40/E strain; Fa 0.95, drug alone): 8.644 µm
Dose of drug alone at Fa 0.97 (HCMV TB40/E strain; Fa 0.97, drug alone): 16.5865 µm
Dose of drug alone at Fa 0.05 (HCMV TB40/E strain; Fa (fraction of virus affected) 0.05, drug alone): 0.00633 µm
EC50 (HCMV TB40/E strain; Fa 0.5, drug alone, read-out: Dose of drug alone at Fa 0.5): 234 nM
EC50 (HCMV TB40/E strain; drug alone, human foreskin fibroblasts, read-out: EC50 (concentration that reduced the plaque formation by 50%)): 1000 nM
DRI (dose reduction index) (HCMV TB40/E strain; Fa 0.05): 2.039
DRI (dose reduction index) (HCMV TB40/E strain; Fa 0.5): 5.884
DRI (dose reduction index) (HCMV TB40/E strain; Fa 0.75): 8.738
DRI (dose reduction index) (HCMV TB40/E strain; Fa 0.9): 12.98
DRI (dose reduction index) (HCMV TB40/E strain; Fa 0.9, listed as MBV): 12.9771
DRI (dose reduction index) (HCMV TB40/E strain; Fa 0.95): 16.9821
DRI (dose reduction index) (HCMV TB40/E strain; Fa 0.97): 20.6
DRI (dose reduction index) (HCMV TB40/E strain; Fa 0.97, listed as MBV): 20.5640
EC50 (HCMV; ex vivo, Fa 0.5, drug alone, read-out: Dose of drug alone at Fa 0.5): 186 nM
EC50 (HCMV; sole drug, ex vivo decidual tissues, read-out: EC50 (concentration required to reduce the viral mRNA copy number by 50%)): 250 nM
Dose of drug alone at Fa 0.05 (HCMV; ex vivo, Fa 0.05, drug alone): 0.01861 µm
Dose of drug alone at Fa 0.75 (HCMV; ex vivo, Fa 0.75, drug alone): 0.4396 µm
Dose of drug alone at Fa 0.9 (HCMV; ex vivo): 1.03 µm
Dose of drug alone at Fa 0.9 (HCMV; ex vivo, listed as MBV): 1.038 µm
Dose of drug alone at Fa 0.95 (HCMV; ex vivo, Fa 0.95, drug alone): 1.862 µm
Dose of drug alone at Fa 0.97 (HCMV; ex vivo, Fa 0.97, drug alone): 2.822 µm
DRI (dose reduction index) (HCMV; ex vivo, Fa 0.05): 0.66
DRI (dose reduction index) (HCMV; ex vivo, Fa 0.5): 0.982
DRI (dose reduction index) (HCMV; ex vivo, Fa 0.75): 1.139
DRI (dose reduction index) (HCMV; ex vivo, Fa 0.9): 1.3
DRI (dose reduction index) (HCMV; ex vivo, Fa 0.9, listed as MBV): 1.321
DRI (dose reduction index) (HCMV; ex vivo, Fa 0.95, listed as MBV): 1.461
DRI (dose reduction index) (HCMV; ex vivo, Fa 0.97): 1.57
